# From US20230226005A1, “Methods of Treating, Ameliorating, Shortening Duration, and/or Reversing Symptoms and/or Complications of a Coronavirus Infection” (Yale University, priority 2020, published 2023)
# Columns and labels:
# [1] = tested on: COVID-19 infection; assay: Phase IIa study: COVID-19 PRO frequency score; assay type: in vivo, human
# Excerpt: Subjects were enrolled in two cohorts. The treatment cohort consists of subjects receiving camostat mesylate, and the control cohort consists of subjects receiving a placebo. […] The control cohort received a placebo four times daily for seven days.
# Subjects self-administered Likert-type symptom score evaluations daily from days 0-14, wherein subjects provided a ranking (i.e., 0—not at all, 1—a little bit, 2—somewhat, 3—quite a bit, and 4—very much) in response to various symptoms (e.g., nose, throat, eyes, chest/respiratory, gastrointestinal, body/systemic, and smell/taste symptoms) (Table 1).
# The COVID-19 PRO daily self-score tool consists of 39 items that are answered daily by the subject. Items 1-33 are Likert-scale questions (e.g., rated 0-4), wherein 0=not at all, and 4=very much. These items are summed to score the severity of symptoms, wherein a total score of 132 would indicate the greatest severity of symptoms and a score of 0 would indicate no severity of symptoms.
# Additional statistical models were applied to the raw data, which are provided herein (Tables 8-10).
# [2] = tested on: COVID-19 infection; assay: Phase IIa study: chest/respiratory-family symptom score; assay type: in vivo
# [3] = tested on: COVID-19 infection; assay: Phase IIa study: gastrointestinal-family symptom score; assay type: in vivo; conditions: for gastrointestinal-family symptoms, Fitzmaurice mixed effects model, Effect: Camostat vs Placebo
# [4] = tested on: COVID-19 infection; assay: Phase IIa study: body-family symptom score; assay type: in vivo; conditions: for body-family symptoms, Fitzmaurice mixed effects model, Effect: Camostat vs Placebo
structure (smiles),measurement,setting,value
"CN(C)C(=O)COC(=O)Cc1ccc(OC(=O)c2ccc(NC(=N)N)cc2)cc1 [camostat, 4-[[4-[(Aminoiminomethyl)amino]benzoyl]oxy]benzeneacetic acid 2-(dimethylamino)-2-oxoethyl ester]","frequency score, Fitzmaurice mixed effects model, A: Camostat arm",[1]; day 0,6.25 (0.47)
same,"frequency score, Fitzmaurice mixed effects model, B − A (placebo − camostat)",[1]; day 0,0
same,"frequency score, Fitzmaurice mixed effects model, A: Camostat arm",[1]; day 1,6.49 (0.57)
same,"frequency score, Fitzmaurice mixed effects model, B − A (placebo − camostat)",[1]; day 1,−0.05 (0.67)
same,"frequency score, Fitzmaurice mixed effects model, A: Camostat arm",[1]; day 2,5.51 (0.59)
same,"frequency score, Fitzmaurice mixed effects model, B − A (placebo − camostat)",[1]; day 2,−0.03 (0.68)
same,"frequency score, Fitzmaurice mixed effects model, A: Camostat arm",[1]; day 3,5.88 (0.58)
same,"frequency score, Fitzmaurice mixed effects model, B − A (placebo − camostat)",[1]; day 3,−0.42 (0.67)
same,"frequency score, Fitzmaurice mixed effects model, A: Camostat arm",[1]; day 4,5.64 (0.58)
same,"frequency score, Fitzmaurice mixed effects model, B − A (placebo − camostat)",[1]; day 4,−1.05 (0.68)
same,"frequency score, Fitzmaurice mixed effects model, A: Camostat arm",[1]; day 5,5.54 (0.58)
same,"frequency score, Fitzmaurice mixed effects model, B − A (placebo − camostat)",[1]; day 5,−0.96 (0.68)
same,"frequency score, Fitzmaurice mixed effects model, A: Camostat arm",[1]; day 6,4.75 (0.58)
same,"frequency score, Fitzmaurice mixed effects model, B − A (placebo − camostat)",[1]; day 6,−0.41 (0.68)
same,"frequency score, Fitzmaurice mixed effects model, A: Camostat arm",[1]; day 7,4.62 (0.59)
same,"frequency score, Fitzmaurice mixed effects model, B − A (placebo − camostat)",[1]; day 7,−0.51 (0.68)
same,"frequency score, Fitzmaurice mixed effects model, A: Camostat arm",[1]; day 8,4.39 (0.6)
same,"frequency score, Fitzmaurice mixed effects model, B − A (placebo − camostat)",[1]; day 8,−0.9 (0.7)
same,"frequency score, Fitzmaurice mixed effects model, A: Camostat arm",[1]; day 9,3.98 (0.59)
same,"frequency score, Fitzmaurice mixed effects model, B − A (placebo − camostat)",[1]; day 9,−0.54 (0.69)
same,"frequency score, Fitzmaurice mixed effects model, A: Camostat arm",[1]; day 10,3.96 (0.6)
same,"frequency score, Fitzmaurice mixed effects model, B − A (placebo − camostat)",[1]; day 10,−0.98 (0.69)
same,"frequency score, Fitzmaurice mixed effects model, A: Camostat arm",[1]; day 11,3.8 (0.6)
same,"frequency score, Fitzmaurice mixed effects model, B − A (placebo − camostat)",[1]; day 11,−0.9 (0.7)
same,"frequency score, Fitzmaurice mixed effects model, A: Camostat arm",[1]; day 12,2.75 (0.6)
same,"frequency score, Fitzmaurice mixed effects model, B − A (placebo − camostat)",[1]; day 12,−0.28 (0.7)
same,"frequency score, Fitzmaurice mixed effects model, A: Camostat arm",[1]; day 13,2.66 (0.62)
same,"frequency score, Fitzmaurice mixed effects model, B − A (placebo − camostat)",[1]; day 13,−0.22 (0.72)
same,"frequency score, Fitzmaurice mixed effects model, A: Camostat arm",[1]; day 14,2.44 (0.61)
same,"frequency score, Fitzmaurice mixed effects model, B − A (placebo − camostat)",[1]; day 14,−0.13 (0.72)
same,"chest/respiratory-family symptom score, Fitzmaurice model, Camostat",[2]; day 0,7.5 (0.7)
same,"chest/respiratory-family symptom score, Fitzmaurice model, Camostat",[2]; day 1,7.7 (0.8)
same,"chest/respiratory-family symptom score, Fitzmaurice model, Effect (placebo vs camostat)",[2]; day 1,−0.1 (0.9)
same,"chest/respiratory-family symptom score, Fitzmaurice model, Camostat",[2]; day 2,7.6 (0.8)
same,"chest/respiratory-family symptom score, Fitzmaurice model, Effect (placebo vs camostat)",[2]; day 2,−0.5 (0.9)
same,"chest/respiratory-family symptom score, Fitzmaurice model, Camostat",[2]; day 3,7.5 (0.8)
same,"chest/respiratory-family symptom score, Fitzmaurice model, Effect (placebo vs camostat)",[2]; day 3,−0.4 (0.9)
same,"chest/respiratory-family symptom score, Fitzmaurice model, Camostat",[2]; day 4,8 (0.8)
same,"chest/respiratory-family symptom score, Fitzmaurice model, Effect (placebo vs camostat)",[2]; day 4,−1.7 (0.9)
same,"chest/respiratory-family symptom score, Fitzmaurice model, Camostat",[2]; day 5,7 (0.8)
same,"chest/respiratory-family symptom score, Fitzmaurice model, Effect (placebo vs camostat)",[2]; day 5,−0.8 (0.9)
same,"chest/respiratory-family symptom score, Fitzmaurice model, Camostat",[2]; day 6,6.6 (0.8)
same,"chest/respiratory-family symptom score, Fitzmaurice model, Effect (placebo vs camostat)",[2]; day 6,−0.7 (0.9)
same,"chest/respiratory-family symptom score, Fitzmaurice model, Camostat",[2]; day 7,6.2 (0.8)
same,"chest/respiratory-family symptom score, Fitzmaurice model, Effect (placebo vs camostat)",[2]; day 7,−0.7 (0.9)
same,"chest/respiratory-family symptom score, Fitzmaurice model, Camostat",[2]; day 8,5.7 (0.8)
same,"chest/respiratory-family symptom score, Fitzmaurice model, Effect (placebo vs camostat)",[2]; day 8,−1.4 (0.9)
same,"chest/respiratory-family symptom score, Fitzmaurice model, Camostat",[2]; day 9,5.4 (0.8)
same,"chest/respiratory-family symptom score, Fitzmaurice model, Effect (placebo vs camostat)",[2]; day 9,−1.2 (0.9)
same,"chest/respiratory-family symptom score, Fitzmaurice model, Camostat",[2]; day 10,4.9 (0.8)
same,"chest/respiratory-family symptom score, Fitzmaurice model, Effect (placebo vs camostat)",[2]; day 10,−1 (0.9)
same,"chest/respiratory-family symptom score, Fitzmaurice model, Camostat",[2]; day 11,4.2 (0.8)
same,"chest/respiratory-family symptom score, Fitzmaurice model, Effect (placebo vs camostat)",[2]; day 11,−0.5 (0.9)
same,"chest/respiratory-family symptom score, Fitzmaurice model, Camostat",[2]; day 12,4 (0.8)
same,"chest/respiratory-family symptom score, Fitzmaurice model, Effect (placebo vs camostat)",[2]; day 12,−1 (0.9)
same,"chest/respiratory-family symptom score, Fitzmaurice model, Camostat",[2]; day 13,3.9 (0.9)
same,"chest/respiratory-family symptom score, Fitzmaurice model, Effect (placebo vs camostat)",[2]; day 13,−1.1 (0.9)
same,"chest/respiratory-family symptom score, Fitzmaurice model, Camostat",[2]; day 14,3.5 (0.9)
same,"chest/respiratory-family symptom score, Fitzmaurice model, Effect (placebo vs camostat)",[2]; day 14,−0.8 (0.9)
same,"gastrointestinal-family symptoms, Fitzmaurice mixed effects model, Camostat",[3]; Day 0,2.1 (0.2)
same,"gastrointestinal-family symptoms, Fitzmaurice mixed effects model, Camostat",[3]; Day 1,2.4 (0.3)
same,"gastrointestinal-family symptoms, Fitzmaurice mixed effects model, Effect",[3]; Day 1,−0.4 (0.4)
same,"gastrointestinal-family symptoms, Fitzmaurice mixed effects model, Camostat",[3]; Day 2,2 (0.3)
same,"gastrointestinal-family symptoms, Fitzmaurice mixed effects model, Effect",[3]; Day 2,−0.1 (0.4)
same,"gastrointestinal-family symptoms, Fitzmaurice mixed effects model, Camostat",[3]; Day 3,1.6 (0.3)
same,"gastrointestinal-family symptoms, Fitzmaurice mixed effects model, Effect",[3]; Day 3,0.1 (0.4)
same,"gastrointestinal-family symptoms, Fitzmaurice mixed effects model, Camostat",[3]; Day 4,1 (0.3)
same,"gastrointestinal-family symptoms, Fitzmaurice mixed effects model, Effect",[3]; Day 4,0.8 (0.4)
same,"gastrointestinal-family symptoms, Fitzmaurice mixed effects model, Camostat",[3]; Day 5,0.9 (0.3)
same,"gastrointestinal-family symptoms, Fitzmaurice mixed effects model, Effect",[3]; Day 5,0.5 (0.4)
same,"gastrointestinal-family symptoms, Fitzmaurice mixed effects model, Camostat",[3]; Day 6,0.8 (0.3)
same,"gastrointestinal-family symptoms, Fitzmaurice mixed effects model, Effect",[3]; Day 6,0.6 (0.4)
same,"gastrointestinal-family symptoms, Fitzmaurice mixed effects model, Camostat",[3]; Day 7,0.7 (0.3)
same,"gastrointestinal-family symptoms, Fitzmaurice mixed effects model, Effect",[3]; Day 7,0.4 (0.4)
same,"gastrointestinal-family symptoms, Fitzmaurice mixed effects model, Camostat",[3]; Day 8,0.6 (0.3)
same,"gastrointestinal-family symptoms, Fitzmaurice mixed effects model, Effect",[3]; Day 8,0.5 (0.4)
same,"gastrointestinal-family symptoms, Fitzmaurice mixed effects model, Camostat",[3]; Day 9,0.5 (0.3)
same,"gastrointestinal-family symptoms, Fitzmaurice mixed effects model, Effect",[3]; Day 9,0.5 (0.4)
same,"gastrointestinal-family symptoms, Fitzmaurice mixed effects model, Camostat",[3]; Day 10,0.8 (0.3)
same,"gastrointestinal-family symptoms, Fitzmaurice mixed effects model, Effect",[3]; Day 10,0.2 (0.4)
same,"gastrointestinal-family symptoms, Fitzmaurice mixed effects model, Camostat",[3]; Day 11,0.5 (0.3)
same,"gastrointestinal-family symptoms, Fitzmaurice mixed effects model, Effect",[3]; Day 11,0.2 (0.4)
same,"gastrointestinal-family symptoms, Fitzmaurice mixed effects model, Camostat",[3]; Day 12,0.4 (0.3)
same,"gastrointestinal-family symptoms, Fitzmaurice mixed effects model, Effect",[3]; Day 12,0.3 (0.4)
same,"gastrointestinal-family symptoms, Fitzmaurice mixed effects model, Camostat",[3]; Day 13,0.5 (0.3)
same,"gastrointestinal-family symptoms, Fitzmaurice mixed effects model, Effect",[3]; Day 13,0.1 (0.4)
same,"gastrointestinal-family symptoms, Fitzmaurice mixed effects model, Camostat",[3]; Day 14,0.3 (0.3)
same,"gastrointestinal-family symptoms, Fitzmaurice mixed effects model, Effect",[3]; Day 14,0.4 (0.4)
same,"body-family symptoms, Fitzmaurice mixed effects model, Camostat",[4]; Day 0,17.1 (1.2)
same,"body-family symptoms, Fitzmaurice mixed effects model, Camostat",[4]; Day 1,14.3 (1.5)
same,"body-family symptoms, Fitzmaurice mixed effects model, Effect",[4]; Day 1,−0.6 (1.7)
same,"body-family symptoms, Fitzmaurice mixed effects model, Camostat",[4]; Day 2,13.6 (1.5)
same,"body-family symptoms, Fitzmaurice mixed effects model, Effect",[4]; Day 2,−2.1 (1.7)
same,"body-family symptoms, Fitzmaurice mixed effects model, Camostat",[4]; Day 3,11.9 (1.5)
same,"body-family symptoms, Fitzmaurice mixed effects model, Effect",[4]; Day 3,−0.8 (1.7)
same,"body-family symptoms, Fitzmaurice mixed effects model, Camostat",[4]; Day 4,8.9 (1.5)
same,"body-family symptoms, Fitzmaurice mixed effects model, Effect",[4]; Day 4,0.9 (1.7)
same,"body-family symptoms, Fitzmaurice mixed effects model, Camostat",[4]; Day 5,7.3 (1.5)
same,"body-family symptoms, Fitzmaurice mixed effects model, Effect",[4]; Day 5,4.2 (1.7)
same,"body-family symptoms, Fitzmaurice mixed effects model, Camostat",[4]; Day 6,5.2 (1.5)
same,"body-family symptoms, Fitzmaurice mixed effects model, Effect",[4]; Day 6,4.4 (1.7)
same,"body-family symptoms, Fitzmaurice mixed effects model, Camostat",[4]; Day 7,4.9 (1.6)
same,"body-family symptoms, Fitzmaurice mixed effects model, Effect",[4]; Day 7,2.8 (1.7)
same,"body-family symptoms, Fitzmaurice mixed effects model, Camostat",[4]; Day 8,3.9 (1.6)
same,"body-family symptoms, Fitzmaurice mixed effects model, Effect",[4]; Day 8,3.1 (1.8)
same,"body-family symptoms, Fitzmaurice mixed effects model, Camostat",[4]; Day 9,3.8 (1.6)
same,"body-family symptoms, Fitzmaurice mixed effects model, Effect",[4]; Day 9,3.1 (1.8)
same,"body-family symptoms, Fitzmaurice mixed effects model, Camostat",[4]; Day 10,3.3 (1.6)
same,"body-family symptoms, Fitzmaurice mixed effects model, Effect",[4]; Day 10,3.1 (1.8)
same,"body-family symptoms, Fitzmaurice mixed effects model, Camostat",[4]; Day 11,3 (1.6)
same,"body-family symptoms, Fitzmaurice mixed effects model, Effect",[4]; Day 11,2.8 (1.8)
same,"body-family symptoms, Fitzmaurice mixed effects model, Camostat",[4]; Day 12,3.8 (1.6)
same,"body-family symptoms, Fitzmaurice mixed effects model, Effect",[4]; Day 12,1.6 (1.8)
same,"body-family symptoms, Fitzmaurice mixed effects model, Camostat",[4]; Day 13,3 (1.6)
same,"body-family symptoms, Fitzmaurice mixed effects model, Effect",[4]; Day 13,2.4 (1.8)
same,"body-family symptoms, Fitzmaurice mixed effects model, Camostat",[4]; Day 14,3.2 (1.6)
same,"body-family symptoms, Fitzmaurice mixed effects model, Effect",[4]; Day 14,2 (1.8)
